Assay results published in patent US20250051375A1, “ANTI-HIV COMPOUNDS” (Gilead Sciences, Inc., priority 2023, published 2025).
pEC50: −log10 of the molar value. Values after ≈ are worked out from the molar mass of the structure shown.

Columns and labels:
HIV-1 IIIB strain = assay: MT-4 HIV Wild Type Virus Infection Assay (IIIB Virus); format: cell-based; settings: Human immunodeficiency virus 1, IIIB, MT4, 120 h, MT-4 cells acutely infected with HIV-1 IIIB, 5 day incubation, Cell-titer glo
Summary of the method: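 MT-4 cells at 2×10^6 cells/ml in RPMI/10% FBS were acutely infected with HIV-1 IIIB for 1 h at 37° C, diluted 25× and added to serially diluted compounds. After 5 days at 37° C, viability read by CellTiter-Glo luminescence; EC50 from dose-response curves.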

[1] = target: bovine intestinal alkaline phosphatase (Bos taurus (Bovine), UniProt P19111); assay: BiALP: conversion by bovine intestinal alkaline phosphatase; format: in vitro ADME; settings: 2 μM substrate, 100 ng/mL iALP, Tris pH 7.8, 37° C., 60 minutes; for [Intermediate A] or [Amprenavir]: parent formed
Summary of the method: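 Compounds at 2 μM final were incubated 60 min at 37° C in 0.1 M Tris-HCl pH 7.8 with 1 mM MgCl2 and 1 mM ZnCl2, with or without 100 ng/mL iALP (0.01 units/mL). Samples were quenched with acetonitrile/formic acid containing labetalol. Conversion was quantified by LC-MS peak area ratios against a 2 μM product standard.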

[2] = Intestinal S9 Assay (human GI S9); format: in vitro ADME; settings: 1.0 mg/mL S9 protein; for half-life at 2 μM: human, TRIS pH 7.4, read-out: Human GI S9 T½
Procedure: (§1) Reagents. Stock solutions of test compounds in dimethyl sulfoxide (DMSO) having a final concentration of 10 mM were prepared and used in all experiments. Sekisui XenoTech (Kansas City, KS) provided pooled intestinal S9 fractions. All other chemicals were purchased from Sigma-Aldrich (St. Louis, MO) or VWR (West Chester, PA). Internal Standard/Quench (IS/Q) used to stop reactions was 100 nM labetalol in (by volume) formic acid (1%) and acetonitrile (99%).
(§2) Intestinal S9 Assay: For each test compound, an aliquot of the test compound was added to S9 stock diluted with TRIS buffer (100 mM TRIS, 1 mM ZnCl2, 1 mM MgCl2), pH 7.4, to obtain an incubation protein concentration of 1.0 mg/mL. The incubation was initiated by the addition of the substrate to the S9 reaction mixture to a final concentration of 2 μM. At 0, 10, 20, 30, 60 and 120 min, 25 μL aliquots of the reaction mixture were transferred to plates containing 225 μl of IS/Q solution. After quenching, the plates were centrifuged at 3000×g for 30 minutes. 150 μL aliquots of each supernatant were transferred to new plates and 150 μL water was added. Aliquots (10 μL) of the prepared samples were analyzed on a Thermo Q-Exactive mass spectrometer as described below.
(§3) Liquid Chromatography-Mass Spectrometry: Quantification of test compounds and control substrate was performed by analyte/internal standard peak area ratio (PAR) values measured on a Thermo Q-Exactive mass spectrometer coupled to a Dionex UltiMate 3000 HPLC with a Leap Technologies HTC PAL autosampler. The column used for analysis was a Thermo Scientific Hypersil GOLD (1.9 μm particle size, 50×2.1 mm). Mobile phase A consisted of 0.1% (v/v) formic acid in water. Mobile phase B consisted of 0.1% (v/v) formic acid in acetonitrile. Elution of analytes was achieved by a series of linear gradients varying the proportions of A and B. The mass spectrometer was calibrated on a weekly basis and mass tolerance of 5 ppm was used.
(§4) Data Analysis. Metabolic stabilities were determined by measuring the rates of disappearance of test compound and positive control substrate. Data (% of substrate remaining) were plotted on a semi-log scale and fitted using an exponential decline model:
(§5) where • Ct% of substrate remaining at time=t • C0% of substrate remaining at time=0 • t time • T½ half-life • The Half-life (T½) is determined by the following equation:
(§6) [formula] • Assuming a first-order reaction, the slope (k) is extrapolated from the aforementioned plotted data.

[3] = Intestinal S9 Assay (dog GI S9); format: in vitro ADME; settings: 1.0 mg/mL S9 protein; for Dog GI S9 [Intermediate A] / Dog GI S9 [Intermediate A] %: 2 μM, TRIS pH 7.4; for half-life at 2 μM: dog, TRIS pH 7.4, read-out: Dog GI S9 T½
Procedure: as §1, §2, §3, §4, §5, §6

Solubility in FaSSIF = settings: 23 °C, pH 6.5, fassif, thermodynamic from solid
Summary of the method: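 Concentration measured by HPLC-UV after solid compound was dosed at 5 mg/mL into pH 6.5 fasted-state simulated intestinal fluid containing taurocholate and lecithin (4:1 molar) and vortexed.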

Sequence of bovine intestinal alkaline phosphatase (P19111 20-506): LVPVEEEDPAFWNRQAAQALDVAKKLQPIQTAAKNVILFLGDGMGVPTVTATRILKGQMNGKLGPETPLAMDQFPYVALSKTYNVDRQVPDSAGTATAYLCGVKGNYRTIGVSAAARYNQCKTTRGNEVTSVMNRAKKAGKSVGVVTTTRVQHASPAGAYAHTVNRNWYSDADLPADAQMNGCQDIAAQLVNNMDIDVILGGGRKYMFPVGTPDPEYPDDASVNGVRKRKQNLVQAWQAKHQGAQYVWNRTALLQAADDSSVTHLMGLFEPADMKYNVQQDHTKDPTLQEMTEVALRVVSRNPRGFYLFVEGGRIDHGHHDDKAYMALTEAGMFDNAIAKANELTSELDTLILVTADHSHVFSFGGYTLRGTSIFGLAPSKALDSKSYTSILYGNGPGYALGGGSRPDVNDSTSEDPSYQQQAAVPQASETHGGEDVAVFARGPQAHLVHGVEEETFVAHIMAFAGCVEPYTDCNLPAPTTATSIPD

| Structure (SMILES) | pEC50 (HIV-1 IIIB strain) | [Compound] [1] | biALP Intermediate A or [Amprenavir] (% of total) [1] | [Intermediate A] or [Amprenavir] [1] | Human GI S9 [Intermediate A] ([2]; 2 μM, TRIS pH 7.4) | Human GI S9 [Intermediate A] % ([2]; 2 μM, TRIS pH 7.4) | half-life at 2 μM [2] | Dog GI S9 [Intermediate A] [3] | Dog GI S9 [Intermediate A] % [3] | half-life at 2 μM [3] | solubility at 2 h (Solubility in FaSSIF) | Human GI S9 T½ ([2]; 2 μM, TRIS pH 7.4) |
| --- | --- | --- | --- | --- | --- | --- | --- | --- | --- | --- | --- | --- |
| COC(=O)N[C@H](C(=O)N[C@@H](Cc1ccc(C#Cc2cnc(N3CC4CCC(C3)N4C3COC3)nc2)cc1)[C@H](CN(Cc1c(F)cc(-c2ccn(C(F)F)n2)cc1F)NC(=O)[C@@H](NC(=O)OC)C(C)(C)C(F)(F)F)OC(=O)CC(C)(C)c1c(CC(=O)Nc2cc(C(=O)O)cc(C(=O)O)c2)cccc1OP(=O)(O)O)C(C)(C)C(F)(F)F [Example 19] | 7.41 | 1405.7 nM | 18.4 % of total | 317.9 nM | 323.6 nM | 22.1% | 3.83 h | 1045.1 nM | 94.7% | 0.3 h | 3650 µg/mL (≈ 2230 µM) | – |
| COC(=O)N[C@H](C(=O)N[C@@H](Cc1ccc(C#Cc2cnc(N3CC4CCC(C3)N4C3COC3)nc2)cc1)[C@H](CN(Cc1c(F)cc(-c2ccn(C(F)F)n2)cc1F)NC(=O)[C@@H](NC(=O)OC)C(C)(C)C(F)(F)F)OC(=O)CC(C)(C)c1c(CC(=O)NC2(C(=O)O)CCOCC2)cc(C)cc1OP(=O)(O)O)C(C)(C)C(F)(F)F [Example 31] | 6.56 | 2125.6 nM | – | – | – | – | 8.24 h | – | – | 3.71 h | 3510 µg/mL (≈ 2180 µM) | – |
| COC(=O)N[C@H](C(=O)N[C@@H](Cc1ccc(C#Cc2cnc(N3CC4CCC(C3)N4C3COC3)nc2)cc1)[C@H](CN(Cc1c(F)cc(-c2ccn(C(F)F)n2)cc1F)NC(=O)[C@@H](NC(=O)OC)C(C)(C)C(F)(F)F)OC(=O)CC(C)(C)c1c(CC(=O)N[C@@H](CCS(=O)(=O)O)C(=O)O)cccc1OP(=O)(O)O)C(C)(C)C(F)(F)F [Example 40] | 7.39 | 1458.8 nM | – | – | – | – | 4.76 h | – | – | 0.537 h | 4910 µg/mL (≈ 3000 µM) | – |
| COC(=O)N[C@H](C(=O)N[C@@H](Cc1ccc(C#Cc2cnc(N3CC4CCC(C3)N4C3COC3)nc2)cc1)[C@H](CN(Cc1c(F)cc(-c2ccn(C(F)F)n2)cc1F)NC(=O)[C@@H](NC(=O)OC)C(C)(C)C(F)(F)F)OC(=O)CC(C)(C)c1c(CC(=O)N2CCC[C@H]2C(=O)O)cccc1OP(=O)(O)O)C(C)(C)C(F)(F)F [Example 46] | 6.72 | 1864.7 nM | – | – | – | – | 7.41 h | – | – | 5.08 h | 2870 µg/mL (≈ 1830 µM) | – |
| COC(=O)N[C@H](C(=O)N[C@@H](Cc1ccc(C#Cc2cnc(N3CC4CCC(C3)N4C3COC3)nc2)cc1)[C@H](CN(Cc1c(F)cc(-c2ccn(C(F)F)n2)cc1F)NC(=O)[C@@H](NC(=O)OC)C(C)(C)C(F)(F)F)OC(=O)CC(C)(C)c1c(CC(=O)N2C[C@H]3[C@@H]([C@H]2C(=O)O)C3(C)C)cc(C)cc1OP(=O)(O)O)C(C)(C)C(F)(F)F [Example 47] | 6.23 | 1950.3 nM | – | – | – | – | 6.39 h | – | – | 7.34 h | 3620 µg/mL (≈ 2230 µM) | – |
| COC(=O)N[C@H](C(=O)N[C@@H](Cc1ccc(C#Cc2cnc(N3CC4CCC(C3)N4C3COC3)nc2)cc1)[C@H](CN(Cc1c(F)cc(-c2ccn(C(F)F)n2)cc1F)NC(=O)[C@@H](NC(=O)OC)C(C)(C)C(F)(F)F)OC(=O)CC(C)(C)c1c(CC(=O)N2[C@@H](C)CC[C@H]2C(=O)O)cc(C)cc1OP(=O)(O)O)C(C)(C)C(F)(F)F [Example 54] | 7.03 | 1661.6 nM | – | – | – | – | 12.9 h | – | – | 9.44 h | 3080 µg/mL (≈ 1930 µM) | – |
| COC(=O)N[C@H](C(=O)N[C@@H](Cc1ccc(C#Cc2cnc(N3CC4CCC(C3)N4C3COC3)nc2)cc1)[C@H](CN(Cc1c(F)cc(-c2ccn(C(F)F)n2)cc1F)NC(=O)[C@@H](NC(=O)OC)C(C)(C)C(F)(F)F)OC(=O)CC(C)(C)c1c(CC(=O)N2[C@H](C(=O)O)C[C@@H]3CCCC[C@@H]32)cc(C)cc1OP(=O)(O)O)C(C)(C)C(F)(F)F [Example 55] | 5.46 | 1659.2 nM | – | – | – | – | 12.7 h | – | – | 12 h | < 1000 µg/mL | – |
| COC(=O)N[C@H](C(=O)N[C@@H](Cc1ccc(C#Cc2cnc(N3CC4CCC(C3)N4C3COC3)nc2)cc1)[C@H](CN(Cc1c(F)cc(-c2ccn(C(F)F)n2)cc1F)NC(=O)[C@@H](NC(=O)OC)C(C)(C)C(F)(F)F)OC(=O)CC(C)(C)c1c(CC(=O)N2C[C@@H](O)C[C@H]2C(=O)O)cc(C)cc1OP(=O)(O)O)C(C)(C)C(F)(F)F [Example 56] | 6.59 | 1576.7 nM | – | – | – | – | – | – | – | 6.89 h | 2400 µg/mL (≈ 1500 µM) | 13.2 h |
| COC(=O)N[C@H](C(=O)N[C@@H](Cc1ccc(C#Cc2cnc(N3CC4CCC(C3)N4C3COC3)nc2)cc1)[C@H](CN(Cc1c(F)cc(-c2ccn(C(F)F)n2)cc1F)NC(=O)[C@@H](NC(=O)OC)C(C)(C)C(F)(F)F)OC(=O)CC(C)(C)c1c(CC(=O)N2CC[C@@H](O)[C@H]2C(=O)O)cc(C)cc1OP(=O)(O)O)C(C)(C)C(F)(F)F [Example 57] | 6.54 | 1612.8 nM | – | – | – | – | 11 h | – | – | 7.19 h | 4100 µg/mL (≈ 2560 µM) | – |
| COC(=O)N[C@H](C(=O)N[C@@H](Cc1ccc(C#Cc2cnc(N3CC4CCC(C3)N4C3COC3)nc2)cc1)[C@H](CN(Cc1c(F)cc(-c2ccn(C(F)F)n2)cc1F)NC(=O)[C@@H](NC(=O)OC)C(C)(C)C(F)(F)F)OC(=O)CC(C)(C)c1c(CC(=O)N2C[C@H](O)C[C@H]2C(=O)O)cc(C)cc1OP(=O)(O)O)C(C)(C)C(F)(F)F [Example 58] | 6.43 | 1573.2 nM | – | – | – | – | 12.1 h | – | – | 7.23 h | 4460 µg/mL (≈ 2800 µM) | – |
| COC(=O)N[C@H](C(=O)N[C@@H](Cc1ccc(C#Cc2cnc(N3CC4CCC(C3)N4C3COC3)nc2)cc1)[C@H](CN(Cc1c(F)cc(-c2ccn(C(F)F)n2)cc1F)NC(=O)[C@@H](NC(=O)OC)C(C)(C)C(F)(F)F)OC(=O)CC(C)(C)c1c(CC(=O)NCc2ccc(S(N)(=O)=O)cc2)cc(C)cc1OP(=O)(O)O)C(C)(C)C(F)(F)F [Example 62] | 6.55 | 2213.4 nM | 0 % of total | 0 nM | 22.2 nM | 1.8% | – | 38.3 nM | 3.1% | 13.2 h | – | – |
